Reference: US12091425B2 (AMGEN INC., priority 2016, dated 2024)

How the values were obtained:
[1] = target: T1, Mcl-1/Bim interaction, recombinant human Mcl-1 (171-327) (Homo sapiens, UniProt Q07820); assay: Cell free Mcl-1: Bim Affinity Assay (Mcl-1 HTRF); assay type: binding; settings: TR-FRET, 0.1 nM Mcl-1 (171-327), 0.05 nM biotin-Bim (51-76)
T1 construct: made in house
How it was run: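 Read-out is time-resolved FRET after overnight incubation, using a biotin-labelled peptide from human Bim (51-76) as the binding partner; IC50 was derived from competition curves.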

[2] = system: OPM-2 human multiple myeloma cell line; assay: Cell Viability Assay (OPM-2 10 FBS); assay type: cell-based; settings: OPM-2 cells, 16 h, CellTiter-Glo
How it was run: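 Plated at 3000 cells/well in 10% FBS complete medium, the cells received a serial compound dilution series and incubated 16 h at 37 °C with 5% CO2. CellTiter-Glo was then added; IC50 values were fitted with a logistic 4-parameter model.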

T1 sequence (Q07820 171-327): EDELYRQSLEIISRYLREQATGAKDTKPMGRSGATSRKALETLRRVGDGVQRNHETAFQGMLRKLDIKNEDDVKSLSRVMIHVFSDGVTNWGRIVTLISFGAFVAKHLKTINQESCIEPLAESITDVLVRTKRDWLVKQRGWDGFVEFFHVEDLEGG

Row | IC50 ([2]; Homo sapiens, OPM-2, 16 h) | Compound | IC50 [1] | IC50 [2]
1 | 2160 nM | CC1CC(N(C)C)CC(O)C2CCC2CN2CC3(CCCc4cc(Cl)ccc43)COc3ccc(cc32)C(=O)NS(=O)(=O)C1C (single isomer, unassigned) [Example 248] | 0.701 nM | –
2 | 23000 nM | CC1CC(C)C(C)S(=O)(=O)NC(=O)c2ccc3c(c2)N(CC2CCC2C(O)C1)CC1(CCCc2cc(Cl)ccc21)CO3 (single isomer, unassigned) [Example 259] | 44.4 nM | –
3 | – | CC1CC(C)CS(=O)(=O)NC(=O)c2ccc3c(c2)N(CC2CCC2C(O)C1)CC1(CCCc2cc(Cl)ccc21)CO3 (single isomer, unassigned) [Example 270] | 1.03 nM | 116 nM
4 | – | CC1CC(C)CS(=O)(=O)NC(=O)c2ccc3c(c2)N(CC2CCC2C(O)C1)CC1(CCCc2cc(Cl)ccc21)CO3 (single isomer, unassigned) [Example 272] | 0.396 nM | 1190 nM
5 | 430 nM | O=C1NS(=O)(=O)[C@@H]2CCOC[C@H]2C/C=C/[C@H](O)[C@@H]2CC[C@H]2CN2C[C@@]3(CCCc4cc(Cl)ccc43)COc3ccc1cc32 (single isomer, unassigned) [Example 318] | 0.273 nM | –
6 | – | CO[C@H]1/C=C/C[C@@H]2COCC[C@H]2S(=O)(=O)NC(=O)c2ccc3c(c2)N(C[C@@H]2CC[C@H]21)C[C@@]1(CCCc2cc(Cl)ccc21)CO3 (single isomer, unassigned) [Example 320] | 0.329 nM | 342 nM
7 | – | CO[C@H]1/C=C/C[C@H]2COCC[C@@H]2S(=O)(=O)NC(=O)c2ccc3c(c2)N(C[C@@H]2CC[C@H]21)C[C@@]1(CCCc2cc(Cl)ccc21)CO3 (single isomer, unassigned) [Example 321] | 2.29 nM | 2180 nM
8 | 123 nM | COCCOC1C=CCC2COCCC2S(=O)(=O)NC(=O)c2ccc3c(c2)N(CC2CCC21)CC1(CCCc2cc(Cl)ccc21)CO3 (single isomer, unassigned) [Example 322] | 0.4 nM | –
9 | 2980 nM | O=C1NS(=O)(=O)[C@@H]2CCC[C@@H]2C/C=C/[C@H](O)[C@@H]2CC[C@H]2CN2C[C@@]3(CCCc4cc(Cl)ccc43)COc3ccc1cc32 (single isomer, unassigned) [Example 323] | 2.02 nM | –
10 | – | O=C1NS(=O)(=O)[C@H]2CCC[C@H]2C/C=C/[C@H](O)[C@@H]2CC[C@H]2CN2C[C@@]3(CCCc4cc(Cl)ccc43)COc3ccc1cc32 (single isomer, unassigned) [Example 324] | 1.68 nM | 1940 nM
11 | – | O=C1NS(=O)(=O)[C@@H]2CCC[C@H]2C/C=C/[C@H](O)[C@@H]2CC[C@H]2CN2C[C@@]3(CCCc4cc(Cl)ccc43)COc3ccc1cc32 (single isomer, unassigned) [Example 325] | 0.297 nM | 208 nM
12 | – | O=C1NS(=O)(=O)[C@@H]2CCC[C@H]2C/C=C/[C@H](O)[C@@H]2CC[C@H]2CN2C[C@@]3(CCCc4cc(Cl)ccc43)COc3ccc1cc32 (single isomer, unassigned) [Example 326] | 5.51 nM | 20000 nM
13 | – | Cn1cnc(CO[C@H]2/C=C/C[C@@H]3CCC[C@H]3S(=O)(=O)NC(=O)c3ccc4c(c3)N(C[C@@H]3CC[C@H]32)C[C@@]2(CCCc3cc(Cl)ccc32)CO4)n1 (single isomer, unassigned) [Example 328] | 0.44 nM | 428 nM
14 | – | Cn1cnc(CO[C@H]2/C=C/C[C@H]3CCC[C@@H]3S(=O)(=O)NC(=O)c3ccc4c(c3)N(C[C@@H]3CC[C@H]32)C[C@@]2(CCCc3cc(Cl)ccc32)CO4)n1 (single isomer, unassigned) [Example 329] | 2.58 nM | 3480 nM
15 | 284 nM | O=C1NS(=O)(=O)[C@@H]2CCCC[C@H]2C/C=C/[C@H](O)[C@@H]2CC[C@H]2CN2C[C@@]3(CCCc4cc(Cl)ccc43)COc3ccc1cc32 (single isomer, unassigned) [Example 331] | 0.248 nM | –
16 | 5580 nM | O=C1NS(=O)(=O)[C@H]2CCCC[C@@H]2C/C=C/[C@H](O)[C@@H]2CC[C@H]2CN2C[C@@]3(CCCc4cc(Cl)ccc43)COc3ccc1cc32 (single isomer, unassigned) [Example 332] | 3.89 nM | –
17 | – | O=C1NS(=O)(=O)[C@@H]2CCCC[C@H]2CCC[C@H](O)[C@@H]2CC[C@H]2CN2C[C@@]3(CCCc4cc(Cl)ccc43)COc3ccc1cc32 (single isomer, unassigned) [Example 333] | 0.96 nM | 3450 nM
18 | – | O=C1NS(=O)(=O)[C@H]2CCCC[C@@H]2CCC[C@H](O)[C@@H]2CC[C@H]2CN2C[C@@]3(CCCc4cc(Cl)ccc43)COc3ccc1cc32 (single isomer, unassigned) [Example 334] | 6.92 nM | 2660 nM
19 | – | O=C1NS(=O)(=O)[C@@H]2C[C@H](O)C[C@H]2C/C=C/[C@H](O)[C@@H]2CC[C@H]2CN2C[C@@]3(CCCc4cc(Cl)ccc43)COc3ccc1cc32 (single isomer, unassigned) [Example 335] | 0.263 nM | 2120 nM

Row | IC50 ([2]; Homo sapiens, OPM-2, 16 h) | Compound | IC50 [1] | IC50 [2]
20 | – | CO[C@@H]1C[C@H]2C/C=C/[C@H](OC)[C@@H]3CC[C@H]3CN3C[C@@]4(CCCc5cc(Cl)ccc54)COc4ccc(cc43)C(=O)NS(=O)(=O)[C@@H]2C1 (single isomer, unassigned) [Example 337] | 0.705 nM | 383 nM
21 | – | CC(=O)N1C[C@H]2C/C=C/[C@H](O)[C@@H]3CC[C@H]3CN3C[C@@]4(CCCc5cc(Cl)ccc54)COc4ccc(cc43)C(=O)NS(=O)(=O)[C@@H]2C1 (single isomer, unassigned) [Example 338] | 0.241 nM | 5620 nM
22 | – | CO[C@H]1/C=C/C[C@@H]2CN(C(C)=O)C[C@H]2S(=O)(=O)NC(=O)c2ccc3c(c2)N(C[C@@H]2CC[C@H]21)C[C@@]1(CCCc2cc(Cl)ccc21)CO3 (single isomer, unassigned) [Example 340] | 0.19 nM | 941 nM
23 | 6490 nM | O=C1NS(=O)(=O)N2CCOC[C@H]2C/C=C/[C@H](O)[C@@H]2CC[C@H]2CN2C[C@@]3(CCCc4cc(Cl)ccc43)COc3ccc1cc32 (single isomer, unassigned) [Example 343] | 7.27 nM | –
24 | 912 nM | O=C1NS(=O)(=O)N2CCOC[C@H]2C/C=C\[C@H](O)[C@@H]2CC[C@H]2CN2C[C@@]3(CCCc4cc(Cl)ccc43)COc3ccc1cc32 (single isomer, unassigned) [Example 344] | 2.11 nM | –
25 | 488 nM | O=C1NS(=O)(=O)N2CCC[C@H]2C/C=C/[C@H](O)[C@@H]2CC[C@H]2CN2C[C@@]3(CCCc4cc(Cl)ccc43)COc3ccc1cc32 (single isomer, unassigned) [Example 345] | 0.877 nM | –
26 | 2270 nM | CC(=O)O[C@H]1/C=C/C[C@@H]2CCCN2S(=O)(=O)NC(=O)c2ccc3c(c2)N(C[C@@H]2CC[C@H]21)C[C@@]1(CCCc2cc(Cl)ccc21)CO3 (single isomer, unassigned) [Example 346] | 1.9 nM | –
27 | 3560 nM | CC(=O)O[C@H]1/C=C/C[C@H]2CCCN2S(=O)(=O)NC(=O)c2ccc3c(c2)N(C[C@@H]2CC[C@H]21)C[C@@]1(CCCc2cc(Cl)ccc21)CO3 (single isomer, unassigned) [Example 348] | 6.86 nM | –
28 | 509 nM | CNC(=O)C(OC)C1C=CC2CCC2CN2CC3(CCCc4cc(Cl)ccc43)COc3ccc(cc32)C(=O)NS(=O)(=O)C(C)C(C)C1 (single isomer, unassigned) [Example 361] | 0.519 nM | –
29 | – | CNC(=O)[C@@H](OC)[C@@H]1CC[C@@H]2CC[C@H]2CN2C[C@@]3(CCCc4cc(Cl)ccc43)COc3ccc(cc32)C(=O)NS(=O)(=O)[C@H](C)[C@@H](C)C1 (single isomer, unassigned) [Example 363] | 0.793 nM | 483 nM
30 | – | O=C1NS(=O)(=O)[C@H]2CCCC(C2)[C@H](O)[C@@H]2CC[C@H]2CN2C[C@@]3(CCCc4cc(Cl)ccc43)COc3ccc1cc32 (single isomer, unassigned) [Example 364] | 3.12 nM | 30900 nM
31 | – | O=C1NS(=O)(=O)[C@H](Cc2nccs2)CC/C=C/[C@H](O)[C@@H]2CC[C@H]2CN2C[C@@]3(CCCc4cc(Cl)ccc43)COc3ccc1cc32 (single isomer, unassigned) [Example 373] | 0.731 nM | 404 nM
32 | – | O=C1NS(=O)(=O)[C@H](Cc2nccs2)CC/C=C\[C@H](O)[C@@H]2CC[C@H]2CN2C[C@@]3(CCCc4cc(Cl)ccc43)COc3ccc1cc32 (single isomer, unassigned) [Example 374] | 2.86 nM | 2940 nM
33 | – | COCCO[C@H]1/C=C/C[C@@H](C)CS(=O)(=O)NC(=O)c2ccc3c(c2)N(C[C@@H]2CC[C@H]21)C[C@@]1(CCCc2cc(Cl)ccc21)CO3 (single isomer, unassigned) [Example 375] | 7.73 nM | 5700 nM
34 | – | COCCO[C@H]1/C=C/C[C@H](C)CS(=O)(=O)NC(=O)c2ccc3c(c2)N(C[C@@H]2CC[C@H]21)C[C@@]1(CCCc2cc(Cl)ccc21)CO3 (single isomer, unassigned) [Example 376] | 0.403 nM | 222 nM
35 | – | C[C@H]1C/C=C/[C@H](OCCN2CCOCC2)[C@@H]2CC[C@H]2CN2C[C@@]3(CCCc4cc(Cl)ccc43)COc3ccc(cc32)C(=O)NS(=O)(=O)[C@@H]1CC1CC1 (single isomer, unassigned) [Example 386] | 0.63 nM | 273 nM
36 | – | COCC[C@@H]1[C@@H](C)C/C=C/[C@H](O)[C@@H]2CC[C@H]2CN2C[C@@]3(CCCc4cc(Cl)ccc43)COc3ccc(cc32)C(=O)NS1(=O)=O (single isomer, unassigned) [Example 393] | 0.213 nM | 137 nM
37 | – | COCC[C@@H]1[C@@H](C)C/C=C\[C@H](O)[C@@H]2CC[C@H]2CN2C[C@@]3(CCCc4cc(Cl)ccc43)COc3ccc(cc32)C(=O)NS1(=O)=O (single isomer, unassigned) [Example 394] | 1.26 nM | 1250 nM
